Test results: patent US12576040B2, “Ionizable lipids and methods of manufacture and use thereof” (priority 2020, dated 2026)
Read-outs that look alike come from different tables or passages of the source.

What was measured:
physchem = assay type: physicochemical; details: for pKa: water soluble analogue
Procedure: The pH-dependence of proton NMR chemical shifts was used to measure the pKa's of the ionizable lipid water-soluble analogues (WSA) following published methods5,6. Chemical shifts of piperazine, imidazole, 2-chloroacetic acid and acetic acid were used as internal pH indicators. Solutions for MC3-WSA were prepared with 100 mM KCl, 2 mM piperazine, 2 mM imidazole, and 5 mM water soluble ionizable lipid analogue in 95% H2O-5% D2O. Solutions for the terminal(N1) and aza amines(N2) at the p-position of carboxylic esters of C24-WSA were prepared with 100 mM KCl, 2 mM piperazine, 2 mM imidazole, 0.2 mM DSS, and 5 mM water soluble ionizable lipid analogue in 95% H2O-5% D2O. Solutions for the internal amine (N3) of C24-WSA were prepared with 100 mM KCl, 2 mM chloroacetic acid, 2 mM acetic acid, 0.2 mM DSS, and 5 mM water soluble ionizable lipid analogue in 95% H2O-5% D2O. Solutions were split into two equal volumes and one titrated to a lower pH using 0.1 M HCl and the other to an upper pH using 0.1 M NaOH where the lower and upper pH bracketed the desired range of pH. Intermediate pH values were obtained by mixing different proportions of these two solutions. NMR measurements were performed on a Bruker 400 MHz spectrometer where 1H spectra were acquired at each of ˜24 pH values ranging from the lower to upper pH. […] Chemical shifts from piperazine, imidazole, 2-chloroacetic acid, and acetic acid were then used to calculate the pH of each solution according to published methods5,6 and the chemical shifts of protons adjacent to each nitrogen in the ionizable lipid water sluble analogue headgroup were fit to the Henderson-Hasselbalch equation to provide the pKa of each Nitrogen. Spectra are in Supplementary FIG. 2.

[1] = Dynamic Light Scattering for LNP size; assay type: physicochemical; details: number-average from DLS
Procedure: (§1) • A: Ribogreen Assay for mRNA Encapsulation Efficiency. 1×TE Buffer and Triton Buffer (2% v/v in 1×TE Buffer) were added in duplicates into a black microplate per LNP. LNPs were diluted to 4 ng/ul in 1×DPBS pH 7.4 and added to each TE/Triton well in a ratio 1:1. Two standard curves were included in the Ribogreen Assay, one containing mRNA and 1×TE Buffer and other containing mRNA and Triton Buffer. Each one of these standard curves were used to calculate the mRNA concentration in each TE Buffer or Triton Buffer. This approach using two standard curves is more accurate for calculating the encapsulation efficiency and mRNA concentrations, in comparison to a single standard curve. Standards were included in the microplate after diluted LNPs were added to the plate. Microplates were incubated at 37° C. for 10 minutes to extract LNPs with Triton. Ribogreen reagent was diluted 1:100 in 1×TE Buffer and added to each well in a ratio 1:1. Microplates were immediately introduced into the Cytation 5 Cell Imaging Multi-Mode Reader (Biotek) to read Fluorescence (Ex485/Em528). The results are illustrated in FIG. 34. • B: Dynamic Light Scattering for LNP Size (red dots are PDI right y axis). LNPs were diluted to 6.25 ng/ul in 1×DPBS pH 7.4 and transferred into a quartz cuvette (ZEN2112) to measure size by Dynamic Light Scattering (DLS) in the Zetasizer Nano ZS (Malvern Panalytical) using particle RI of 1.45 and Absorption of 0.001 in 1×PBS at 25° C. with viscosity of 1.02 cP and RI of 1.335. Measurements were made using a 173° Backscatter angle of detection previously equilibrated to 25° C. for 30 seconds in duplicates, each with 5 runs and 10 second run duration, without delay between measurements. […] Data was analyzed using a General-Purpose model with normal resolution. The results are illustrated in FIG. 35. • C: Zeta Potential for LNP charge, pKa and pI. LNPs were diluted in a 75 mM TNS Buffer (10 mM of each of glycylglycine, acetate, imidazole, 20 mM borate, 25 mM NaCl) to contain 0.8 mg of total mRNA in 800 ul of the TNS Buffer and transferred into a Folded Capillary Zeta Cell (DTS1070) to measure size by Dynamic Light Scattering (DLS) and electrophoretic mobility by Electrophoretic Light Scattering (ELS) in the Zetasizer Nano ZS (Malvern Panalytical). Zeta potential is measured under conditions of controlled voltage to limit ohmic heating in a solution with 4 buffers with pKas spread across the pH range 3-10 with 0.5 intervals. LNP pKa is calculated by fitting the Henderson Hasselbalch equation to zeta potential data. LNP pI is found by interpolating zeta potential to zero. We use electrokinetic models to calculate Henry's function and charge of the LNP. The results are illustrated in FIG. 36. • D: TNS Assay for LNP pKa. LNPs were diluted to keep a final concentration of 75 uM of the ionizable lipid and 6 uM of TNS in a 75 mM TNS Buffer (10 mM of each of glycylglycine, acetate, imidazole, 20 mM borate, 25 mM NaCl) in order to keep a ratio TNS/ionizable of 0.08. Fluorescence TNS is measured in a solution with 4 buffers with pKas spread across the pH range 3-10 with 0.5 intervals. The pKa of the LNP was measured using the pH-dependence of fluorescence enhancement of the anionic dye TNS, higher intensity at lower pH and lower at high pH. LNP pKa is calculated by fitting the Henderson Hasselbalch equation to fluorescence data from the TNS Assay. The results are illustrated in FIG. 37. […]

[2] = assay type: physicochemical; details: for pKa,ZP: LNP containing the ionizable lipid, Henderson Hasselbalch fit to zeta potential; for pI, ZP: LNP isoelectric pI from zeta potential
Procedure: • A: Ribogreen Assay for mRNA Encapsulation Efficiency. 1×TE Buffer and Triton Buffer (2% v/v in 1×TE Buffer) were added in duplicates into a black microplate per LNP. LNPs were diluted to 4 ng/ul in 1×DPBS pH 7.4 and added to each TE/Triton well in a ratio 1:1. Two standard curves were included in the Ribogreen Assay, one containing mRNA and 1×TE Buffer and other containing mRNA and Triton Buffer. Each one of these standard curves were used to calculate the mRNA concentration in each TE Buffer or Triton Buffer. This approach using two standard curves is more accurate for calculating the encapsulation efficiency and mRNA concentrations, in comparison to a single standard curve. Standards were included in the microplate after diluted LNPs were added to the plate. Microplates were incubated at 37° C. for 10 minutes to extract LNPs with Triton. Ribogreen reagent was diluted 1:100 in 1×TE Buffer and added to each well in a ratio 1:1. Microplates were immediately introduced into the Cytation 5 Cell Imaging Multi-Mode Reader (Biotek) to read Fluorescence (Ex485/Em528). The results are illustrated in FIG. 34. • B: Dynamic Light Scattering for LNP Size (red dots are PDI right y axis). LNPs were diluted to 6.25 ng/ul in 1×DPBS pH 7.4 and transferred into a quartz cuvette (ZEN2112) to measure size by Dynamic Light Scattering (DLS) in the Zetasizer Nano ZS (Malvern Panalytical) using particle RI of 1.45 and Absorption of 0.001 in 1×PBS at 25° C. with viscosity of 1.02 cP and RI of 1.335. Measurements were made using a 173° Backscatter angle of detection previously equilibrated to 25° C. for 30 seconds in duplicates, each with 5 runs and 10 second run duration, without delay between measurements. […] Data was analyzed using a General-Purpose model with normal resolution. The results are illustrated in FIG. 35. • C: Zeta Potential for LNP charge, pKa and pI. LNPs were diluted in a 75 mM TNS Buffer (10 mM of each of glycylglycine, acetate, imidazole, 20 mM borate, 25 mM NaCl) to contain 0.8 mg of total mRNA in 800 ul of the TNS Buffer and transferred into a Folded Capillary Zeta Cell (DTS1070) to measure size by Dynamic Light Scattering (DLS) and electrophoretic mobility by Electrophoretic Light Scattering (ELS) in the Zetasizer Nano ZS (Malvern Panalytical). Zeta potential is measured under conditions of controlled voltage to limit ohmic heating in a solution with 4 buffers with pKas spread across the pH range 3-10 with 0.5 intervals. LNP pKa is calculated by fitting the Henderson Hasselbalch equation to zeta potential data. LNP pI is found by interpolating zeta potential to zero. We use electrokinetic models to calculate Henry's function and charge of the LNP. The results are illustrated in FIG. 36. • D: TNS Assay for LNP pKa. LNPs were diluted to keep a final concentration of 75 uM of the ionizable lipid and 6 uM of TNS in a 75 mM TNS Buffer (10 mM of each of glycylglycine, acetate, imidazole, 20 mM borate, 25 mM NaCl) in order to keep a ratio TNS/ionizable of 0.08. Fluorescence TNS is measured in a solution with 4 buffers with pKas spread across the pH range 3-10 with 0.5 intervals. The pKa of the LNP was measured using the pH-dependence of fluorescence enhancement of the anionic dye TNS, higher intensity at lower pH and lower at high pH. LNP pKa is calculated by fitting the Henderson Hasselbalch equation to fluorescence data from the TNS Assay. The results are illustrated in FIG. 37.
LNPs were diluted to 6.25 ng/μL total mRNA in PBS pH=7.4 and transferred into a quartz cuvette (ZEN2112) to measure size by Dynamic Light Scattering (DLS) in the Zetasizer Nano ZS (Malvern Panalytical) using particle RI of 1.45 and absorption of 0.001 in PBS at 25° C. with viscosity of 0.888 cP and RI of 1.335. Measurements were made using a 1730 backscatter angle of detection previously equilibrated to 25° C. for 30 seconds in duplicates, each with 5 runs and 10 second run duration, without delay between measurements. […]

[3] = mRNA copies per LNP from molecular volume model and DLS diameter; assay type: physicochemical; details: average mRNA copies per LNP
Procedure: Exemplary ADDE ionizable lipids. pKas were obtained from ACDLabs Percepta for the ionizable lipid, and by zeta potential and TNS for LNPs containing the ionizable lipids. LNP isoelectric pI was obtained from the zeta potential. LNP diameter is number-average from DLS. Average mRNA copies per LNP was calculated using a molecular volume model and the DLS diameter and is proportional to LNP volume.
LNPs were diluted to 6.25 ng/μL total mRNA in PBS pH=7.4 and transferred into a quartz cuvette (ZEN2112) to measure size by Dynamic Light Scattering (DLS) in the Zetasizer Nano ZS (Malvern Panalytical) using particle RI of 1.45 and absorption of 0.001 in PBS at 25° C. with viscosity of 0.888 cP and RI of 1.335. Measurements were made using a 1730 backscatter angle of detection previously equilibrated to 25° C. for 30 seconds in duplicates, each with 5 runs and 10 second run duration, without delay between measurements. […] Data was analyzed using a General-Purpose model with normal resolution. Diameter are reported as the number-average that corresponds more closely to physical size seen in electron microscopy versus the zeta-average. A molecular volume model described previously was used to estimate the number of mRNA copies in the LNP using the number average diameter to calculate LNP volume. LNPs were diluted into the TNS buffer described above at pH ranging from 3-10 for zeta potential measurement by Electrophoretic Light Scattering (ELS) in the Zetasizer Nano ZP (Malvern Panalytical) using the same material and dispersant parameters described above and the Smoluchowski model. Each measurement had voltage set manually at 80 Volts to avoid ohmic heating that occurred if voltage was set automatically. Measurements in the disposable folded capillary cuvette with an automatic attenuation selection for photon counts were made in triplicates for 20 runs each, and 30 second delay between each replicate. Mathematica was used to fit zeta potential data to the data to the extended Henderson-Hasselbalch equation Ψ=Ψ_max−((Ψ_max−Ψ_min))/((1+10^(((pKa−pH))/n))) to provide the pKa, n and low pH and high pH zeta potential limits Ψ_max and Ψ_min, respectively. The extended model is used here, since the LNP pKa is ionization-state-dependent in a way similar to a polyelectrolyte. […] The isoelectric pI was the pH found by interpolating zeta potential to zero. Cryoelectron Microscopy

[4] = assay type: physicochemical; details: LNP containing the ionizable lipid
Procedure: as §1, with “LNPs were diluted to keep a final concentration of 75 uM of the ionizable lipid and 6 uM of TNS in a 75 mM TNS Buffer (10 mM of each of glycylglycine, acetate, imidazole, 20 mM borate, 25 mM NaCl) in order to keep a ratio TNS/ionizable of 0.08.” left out, “Assay.” for “Assay. The results are illustrated in FIG. 37.”
LNP pKa was determined using the TNS assay. […] The Cytation 5 Cell Imaging Multi-Mode Reader (Biotek) was used to read Fluorescence (Ex321/Em445). The pH was measured in each well after TNS addition. […]

| SMILES | difference between NMR-measured and theoretical pKas (physchem) [units] | Diameter (nm) [1] [nm] | pKa,ZP [2] | pI, ZP [2] | mRNA copies [3] | pKa, TNS [4] | pKa (physchem; read-out: pKa by 1H NMR, central nitrogen) | pKa (physchem; read-out: pKa by 1H NMR, nitrogen closest to the linker) | pKa (physchem; read-out: pKa by 1H NMR, terminal nitrogen) |
| --- | --- | --- | --- | --- | --- | --- | --- | --- | --- |
| CCCCCCCCCCC(CCCCCCCC)COC(=O)CCN(CCCCN1CCN(C)CC1)CCC(=O)OCC(CCCCCCCC)CCCCCCCCCC (stereo not drawn) [Lipid C24, Bis(2-octyldodecyl) 3,3′-((4-(4-methylpiperazin-1-yl)butyl)azanediyl)dipropionate] | ≤ 0.4 | – | – | – | – | – | – | – | – |
| CCCCC/C=C\C/C=C\CCCCCCCCOC(=O)CCN(CCC(=O)OCCCCCCCC/C=C\C/C=C\CCCCC)CCN1CCCC1 (racemic) [DL-C2/C2-Pyr] | – | 48 | 6.8 | 7.2 | 1.5 | 7.9 | – | – | – |
| CN1CCN(CCCCN(CCC(=O)OC(C)(C)C)CCC(=O)OC(C)(C)C)CC1 [Lipid C24-WSA] | ≤ 0.4 | – | – | – | – | – | 3.7 | 7.5 | 8.1 |
| CCCCC/C=C\C/C=C\CCCCCCCCOC(=O)CCN(CCC(=O)OCCCCCCCC/C=C\C/C=C\CCCCC)CCN1CCN(C)CC1 (racemic) [DL-C2/C2-PipZ] | – | 64 | 6.2 | 7.6 | 4.3 | 7.8 | – | – | – |
